Tested on: primary acute myeloid leukaemia (AML) blasts
Experiment: In vitro cytotoxicity assay (annexin V apoptosis) in primary acute myeloid leukemia cells
Format: cell-based, human
Conditions: primary AML blasts, CD34+ cells, 48h, annexin V
Experimental: NUC-1031 was assayed for its cytotoxic effects on primary cultures of acute myeloid leukaemia (AML) blasts. LD50 values (the concentration required to kill 50% of the tumour cells in culture) were calculated in respect of NUC-1031 and gemcitabine.
Bone marrow samples were collected in ethylenediaminetetraacetic acid (EDTA) from newly diagnosed, previously untreated, acute myeloid leukemia (AML) patients. AML blasts were enriched by density gradient centrifugation using Histopaque (Sigma, Poole, UK) and were subsequently maintained in Roswell Park Memorial Institute medium (RPMI) supplemented with 10% foetal bovine serum (FBS). Cells were treated with Gemcitabine or NUC-1031 at concentrations between 0.25 µM and 10 µM, and incubated for 48h. All cultures were maintained at 37° C. in a 5% CO2 humidified atmosphere.
Cells were harvested and labelled with CD34-fluorescein isothiocyanate (FITC) (BD Biosciences, Buckingham, UK) and then resuspended in 200 µl of binding buffer containing 4µl of annexin V labelled with allophycocyanin (APC) (eBioscience Ltd, Hatfield, UK). Apoptosis was quantified in the CD34^+ AML cells using an Accuri C6 flow cytometer (Becton Dickinson, CA, USA). At least 10,000 events were acquired and data were subsequently analysed using FlowJo software (Tree Star Inc., Ashland, OR, USA). All LD50 values (concentration of drug required to kill 50% of cells) were derived from the dose-response curves.

SMILES: Nc1ccn([C@@H]2O[C@H](CO)[C@@H](O)C2(F)F)c(=O)n1 [gemcitabine, reference compound]
- mean LD50: 3.1 µM
